In one assay the test system is adipocytes. Description: Real Time PCR analysis of adipocytes, in vitro. To be noted: Real Time PCR, relative to untreated control = 1. In kind it is cell-based, human. The method, then:
For Real Time PCR analysis of adipocytes, cells from cultures grown in 24 well plates were collected. RNA was isolated using RNeasy Kit (Cat 74104, Qiagen, Germantown, Md.) using manufacturer's protocol. RNA was quantitated using the Nanodrop 1000 (Thermofisher, Waltham, Mass.). cDNA formation was carried out using PowerUp SYBR™ Green Master Mix and real time PCR carried out on QuantStudio 6 machine (ThermoFisher, Waltham, Mass.) per manufacturer protocol. ΔΔCT analysis was done using the Expression Suite software (ThermoFisher) purchased with the instrument.
TABLE 2 used Real Time PCR to determine which proteins were expressed in adipocytes upon treatment with activating compounds. […] Real Time PCR values were relative to a control sample that was not treated with any activating compounds. […] In WS-5 and Menthol, no Real Time PCR value was over 2.0, which indicated only slight changes in mRNA expression.

For the next assay, the target named is human TRPM8. Description: TRPM8 Protocol-FLIPR Assay (intracellular Ca2+). In kind it is cell-based. To be noted: HEK-293 cells stably transfected with human TRPM8, Fluo-4 AM, relative to benchmark agonist WS-5. On the procedure: To determine whether TRPM8 is activated, the intracellular calcium ion (Ca^2+) level was measured from transfected cells with the TRPM8 receptor sequence (SEQ ID NO: 1). HEK-293 (human embryonic kidney) cells stably transfected with human TRPM8 were grown in 15 mL growth medium (high glucose DMEM (Dulbecco's Modification of Eagle's Medium) supplemented with 10% FBS (fetal bovine serum), 100 μg/mL penicillin/streptomycin, 5 μg/mL blasticindin, and 100 μg/mL zeocin) in a 75 cm^2 flask for 3 days at 37° C. in a mammalian cell culture incubator (Forma Scientific Model 3110, Marietta, Ohio) set at 5% CO2. Cells were detached with addition of 2 mL of trypsin-EDTA buffer (GIBCO® 25200, Invitrogen, Grand Island, N.Y.) for about 2-3 min. Trypsin was inactivated by addition of 8 mL growth medium. Cells were transferred to a 50 mL tube and centrifuged at 850 rpm for 3 minutes to remove medium. After centrifugation, a pellet of cells was formed in the bottom of the tube separating them from the supernatant solution. The supernatant was discarded and the cell pellet was suspended in 1 mL of fresh growth medium to which 5 μL (12.5 μg) of Fluo-4 AM (Molecular Probes, Inc., Eugene, Oreg.) calcium indicator was added and incubated for 30 min with gentle shaking. Fluo-4 AM is a fluorescent dye used for quantifying cellular Ca^2+ concentrations in the 100 nM to 1 μM range. At the end of 30 minutes, 45 mL of assay buffer (1×HBSS (Hank's Balanced Salt Solution), 20 mM HEPES (4-(2-Hydroxyethyl)-1-piperazineethanesulfonic acid)) was added to wash cells and the resulting mixture was then centrifuged at 850 rpm for 3 minutes at 20° C. to remove excess buffer and Fluo-4 AM calcium indicator.
The pelleted cells were re-suspended in 10 mL assay buffer and 90 μL aliquots (˜50,000 cells) per well delivered to a 96-well assay plate containing 10 μL of test compounds (1 mM in assay buffer, final concentration 100 μM) or buffer control and incubated at room temperature for 30 minutes. After 30 minutes, a plate (Falcon 353219, Corning Corning N.Y.) was placed into a fluorometric imaging plate reader (FLIPR384 from Molecular Devices, Sunnyvale, Calif.) and basal fluorescence recorded (excitation wave length 488 nm and emission wave length 510 nm). Then 20 μL of 100 mM of TRPM8 agonist WS5 coolant in the assay buffer was added and fluorescence recorded. For determining the direct effect of test compounds on TRPM8, fluorescence was measured immediately after addition of each compound (TABLE 1). Additional discussion of the FLIPR method can be found in Smart et al., Characterization using FLIPR of human vanilloid VR1 receptor pharmacology, European Journal of Pharmacology 417, 51-58 (2001) and Liu et al., Development and validation of a platelet calcium flux assay using a fluorescent imaging plate reader, Analytical Biochemistry 357, 216-224 (2006).
The magnitude of the fluorescence of the active-treated cells was compared to the magnitude of the fluorescence from a benchmark agonist (WS-5), as described above. The percentage of fluorescence as a function of active dose was plotted and a sigmoidal curve was generated. Curve fitting from this dose-response curve yielded the value for TRPM8 IC50 in nM.
TRPM8 activation was determined by measuring intracellular calcium ion (Ca^2+) level from transfected cells with the TRPM8 receptor gene, as described in EXAMPLE 1, the results of which are shown in TABLE 1. IC50 values are provided in column 3 of TABLE 1, which measured the concentration of activating compound needed to reduce intracellular [Ca^2+] by 50%. […]

The structures appear in SMILES notation.

Turning to `CC(C)[C@@H]1CC[C@@H](C)C[C@H]1C(=O)NC[C@@H](NC(=O)[C@H](C)N)c1ccccc1` [Formula III], in the assay with adipocytes, the “Relative Expression of mRNA in Adipocytes: 18S” value (from here on “Relative Expression … 18S”) came to 1, the “Relative Expression of mRNA in Adipocytes: ACADM” value (“Relative Expression … ACADM” below) was found to be 1.75, the “Relative Expression of mRNA in Adipocytes: CPT1A” value (“Relative Expression … CPT1A” for short) stood at 1.7 and the “Relative Expression of mRNA in Adipocytes: FASN” value (from here on “Relative Expression … FASN”) is listed as 1.85. In the assay with adipocytes, the “Relative Expression of mRNA in Adipocytes: GAPDH” value (“Relative Expression … GAPDH” for short) is recorded as 1, the “Relative Expression of mRNA in Adipocytes: PPARGC1A” value (from here on “Relative Expression … PPARGC1A”) is listed as 0.8 and the “Relative Expression of mRNA in Adipocytes: PRDM16” value (“Relative Expression … PRDM16” for short) amounted to 0.6. This compound also had an IC50 at human TRPM8 of 2 nM.

Turning to `CC1CCC(C(C)C)C(O)C1` (centres unmarked) [Menthol], in the assay on adipocytes, the “Relative Expression … 18S” value came to 1, the “Relative Expression … ACADM” value was 1.45, the “Relative Expression … CPT1A” value amounted to 1.35 and the “Relative Expression … FASN” value was 1.45. Besides, in the assay with adipocytes, the “Relative Expression … GAPDH” value is given as 1, the “Relative Expression … PPARGC1A” value worked out at 2.0, the “Relative Expression … PRDM16” value was 0.75 and the “Relative Expression of mRNA in Adipocytes: UCP-1” value was 1.7. Also, the IC50 at human TRPM8 worked out at 7000 nM.

For the compound `CCOC(=O)CNC(=O)[C@@H]1C[C@H](C)CC[C@H]1C(C)C` [WS-5], in the assay on adipocytes, the “Relative Expression … 18S” value was found to be 0.85, the “Relative Expression … ACADM” value was found to be 1.45, the “Relative Expression … CPT1A” value came to 1.5 and the “Relative Expression … FASN” value was determined as 2.0. For the same compound, in the assay on adipocytes, the “Relative Expression … GAPDH” value came out at 1, the “Relative Expression … PPARGC1A” value is on record as 1.7, the “Relative Expression … PRDM16” value worked out at 1.3 and the “Relative Expression of mRNA in Adipocytes: UCP-1” value is 1.5. Moreover, at human TRPM8, the IC50 was found to be 2000 nM.

(Values after patent US20200138764A1, “METHODS AND DEVICES FOR ACTIVATING ADIPOSE TISSUE” (The Procter & Gamble Company, priority 2018, published 2020).)
